# Results: paper PMC12799421, “Inhibition of constitutive activity of the atypical chemokine receptor 3 by the small-molecule inverse agonist VUF16840” (Molecular Pharmacology, 2025)
# Tests used:
# [1] = tested on: panel of 19 human chemokine receptors; assay: NanoBiT-complementation based chemokine receptor screen (agonist and antagonist mode); type: cell-based
# Protocol: The pharmacological modulation of all chemokine receptors by VUF16840 was performed according to an established method.[8]^,[23]^,[39] Briefly, β-arrestin2 recruitment to chemokine receptors in response to 1 μM VUF16840 or positive control chemokines was monitored by NanoLuc complementation assay (NanoBiT, Promega). Four hours after transfection, cells were harvested, incubated for 25 minutes at 37 °C with furimazine and distributed into a white 96-well plates (1 × 10^5 cells per well). β-Arrestin2 recruitment was then detected for 20 minutes upon treatment with 1 μM VUF16840 (or increasing concentrations ligand for experiments with CC chemokine receptor [CCR3]) using the Mithras LB940 luminometer (Berthold Technologies). To evaluate the antagonist properties of VUF16840, full agonists of each receptor were added after the 20-minute incubation with VUF16840. Signal from wells treated with full agonist only was defined as 100% activity and signals from wells treated with no agonist were used to set 0% activity. […]
# Fig. 4 Modulation of a panel of chemokine receptors by VUF16840. β-Arrestin2 recruitment toward a full panel of 19 chemokine receptor was measured using a NLuc complementation assay in HEK293T cells. […]
# D3-ACKR3+ cells = assay: CXCL12 uptake in ACKR3-overexpressing hCMEC/D3 cells; type: cell-based, human
# Source text: Human CMEC (D3) cells (CVCL_U985) stably overexpressing ACKR3 and empty vector control were generated by retroviral transductions. The lentiviral expression vector encoding the human ACKR3 was created by cloning the ACKR3 gene (NM_020311.3 from GenScript) in the restriction sites Nhe1/Sma1 of the pLV-LifeAct (a kind gift of Dr Niels Heemskerk). Lentiviral particles were packaged in HEK293T cells, cultured in Dulbecco’s modified Eagle’s medium containing 10% fetal calf serum, 1% penicillin/streptomycin (ThermoFisher Scientific) at 37 °C in a 5% CO2 incubator. Lentiviral expression and packaging vectors were introduced using calcium phosphate transfection. […] Supernatant was taken off, cells were washed 1× with medium and CXCL12-A647 signal in cells was measured using a BioTek Cytation microplate reader (Agilent). […]
# The sigmoidal concentration-dependent displacement of binding of the probes [^3H]VUF15485 and CXCL12-A647 by unlabeled ligands were analyzed using GraphPad Prism 8, by fitting a one-site binding model to the data, to determine the pIC50. Mean pIC50 values were determined by averaging fitted values from individual experiments. […] Mean pEC50 values and pIC50 values were determined by averaging fitted values from individual experiments. […]
compound,measurement,setting,value
COc1ccccc1CCNC(=O)C1CN(C2CCCCC2)CCC1NC(=O)c1cc(-c2ccc(F)cc2F)on1 (stereo not shown) [VUF16840],"agonist mode screen, modulation of β-arrestin2 recruitment",[1]; 1 μM VUF16840,only modulated β-arrestin2 recruitment to hACKR3 and hCCR3
same,antagonist-mode inhibition of any tested chemokine receptor,[1]; 1 μM VUF16840 coincubated with respective endogenous agonist,≤ 50%
same,CXCL12-AF647 uptake (mean fluorescent intensity),"D3-ACKR3+ cells; 3 nM CXCL12-AF647 60 minutes, 1, 10 or 100 nM VUF16840",concentration-dependent inhibition
same,uptake of CXCL12-AF647 (confocal microscopy),"D3-ACKR3+ cells; 3 nM CXCL12-AF647, 100 nM VUF16840",abolished
